Experimental data: the NIST ThermoML archive (doi:10.1021/acs.jced.6b00355)
Numbers after ± are expanded uncertainties.

Experiments:
[1] = Crystal; DTA
[2] = Molar enthalpy of transition or fusion; details: Crystal; DSC

SMILES | Normal melting temperature [1] | Molar enthalpy of transition or fusion [2]
CCCCCCCCCCCC(=O)O [dodecanoic acid] | 44.2 ± 0.7 °C | 37.6 ± 0.89 kJ/mol
CCCCCCCCCCCC(=O)OCC(COC(=O)CCCCCCCCCCC)OC(=O)CCCCCCCCCCC [1,2,3-propanetriyl tridodecanoate] | 48.8 ± 0.7 °C | 127 ± 2.5 kJ/mol
CCCCCCCCCCCCCCCC [hexadecane] | 18.2 ± 0.7 °C | 
CCCCCCCCCCCCCCCC(=O)O [hexadecanoic acid] | 62.8 ± 0.7 °C | 55.8 ± 1.5 kJ/mol
CCCCCCCCCCCCCC(=O)OCC(COC(=O)CCCCCCCCCCCCC)OC(=O)CCCCCCCCCCCCC [1,2,3-propanetriyl tri(tetradecanoate)] | 58.0 ± 0.7 °C | 154 ± 6.2 kJ/mol
CCCCCCCCCCCCCCCCCC(=O)OCC(COC(=O)CCCCCCCCCCCCCCCCC)OC(=O)CCCCCCCCCCCCCCCCC [glycerol trioctadecanoate] | 73.5 ± 0.7 °C | 195 ± 8.6 kJ/mol
CCCCCCCCCCCCCCCC(=O)OCC(COC(=O)CCCCCCCCCCCCCCC)OC(=O)CCCCCCCCCCCCCCC [1,2,3-propanetriyl tri(hexadecanoate)] | 67.6 ± 0.7 °C | 181 ± 5.2 kJ/mol
CCCCCCCCCCCCCCCCCC(=O)O [octadecanoic acid] | 70.0 ± 0.7 °C | 63.3 ± 1.7 kJ/mol
CCCCCCCCCCCCCC(=O)O [tetradecanoic acid] | 54.5 ± 0.7 °C | 44.9 ± 1.1 kJ/mol
